Experimental data published in PMC10028264, “Synergistic antifungal interaction of N-(butylcarbamothioyl) benzamide and amphotericin B against Cryptococcus neoformans” (Frontiers in Microbiology, 2023).
Values after ≈ are worked out from the molar mass of the structure shown.

Biological target: T1, cryptococcal urease (Cryptococcus neoformans, UniProt O13465)
T1 construct: 100 μL of crude protein extract; endogenous in cells; host or cells: Cryptococcus neoformans ATCC 34872, crude lysate (glass-bead lysis, supernatant)
T1 sequence (O13465 whole entry): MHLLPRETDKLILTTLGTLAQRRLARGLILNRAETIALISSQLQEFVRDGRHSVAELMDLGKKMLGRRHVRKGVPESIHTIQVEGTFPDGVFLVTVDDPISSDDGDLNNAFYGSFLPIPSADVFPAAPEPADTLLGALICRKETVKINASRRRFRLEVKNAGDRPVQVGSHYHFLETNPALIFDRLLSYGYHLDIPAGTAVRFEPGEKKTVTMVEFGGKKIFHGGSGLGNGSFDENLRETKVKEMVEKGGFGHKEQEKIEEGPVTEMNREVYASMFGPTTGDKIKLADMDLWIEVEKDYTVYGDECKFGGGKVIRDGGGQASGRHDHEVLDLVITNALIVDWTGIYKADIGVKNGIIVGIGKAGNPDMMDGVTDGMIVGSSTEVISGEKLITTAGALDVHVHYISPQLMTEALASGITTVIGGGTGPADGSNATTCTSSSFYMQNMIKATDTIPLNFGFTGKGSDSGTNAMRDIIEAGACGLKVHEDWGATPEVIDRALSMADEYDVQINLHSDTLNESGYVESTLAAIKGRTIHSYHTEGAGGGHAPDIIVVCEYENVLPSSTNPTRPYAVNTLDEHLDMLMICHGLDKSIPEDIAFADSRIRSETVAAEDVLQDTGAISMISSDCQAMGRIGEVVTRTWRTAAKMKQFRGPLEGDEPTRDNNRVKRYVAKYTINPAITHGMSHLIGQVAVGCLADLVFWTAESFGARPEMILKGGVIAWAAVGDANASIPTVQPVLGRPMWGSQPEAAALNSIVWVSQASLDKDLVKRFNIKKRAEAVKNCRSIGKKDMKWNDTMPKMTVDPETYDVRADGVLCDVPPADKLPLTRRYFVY
Test: Urease activity inhibition test (indophenol method, crude protein extract)
Type: biochemical
Details: C. neoformans ATCC 34872 crude protein extract; indophenol method
Method: Five colonies of C. neoformans were suspended in 100 μL SD broth and inoculated onto SD agar using a Drigalski spreader, and the culture was incubated at 37°C for 48 h. Afterward, all fungal growth was gently scraped and transferred to conical flasks containing 300 mL of SD broth and incubated with shaking (150 rpm) at 37°C for further 48 h. Cells were centrifuged (6,000 × g, 10 min) and washed three times with distilled water. The protein extraction was performed according to [Moller et al. (2016)] with modifications. Briefly, fungal cells were resuspended in 10 mL of chilled lysis buffer consisting of 100 μM Nα-tosyl-L-lysine chloromethyl ketone hydrochloride (TLCK), 1 mM EDTA, 10% glycerol and 0.15 M phosphate-buffered saline (PBS), pH 8.0. […] Then, the cell debris was removed by centrifugation (6,000 × g, 15 min, 4°C), and the protein content of the resulting supernatant was quantified using the […].
The inhibition of urease activity was evaluated by the indophenol method ([Weatherburn, 1967]). […] The reaction mixtures were incubated for further 10 min at 45°C, and the optical density (OD) was measured at 630 nm. Urease inhibition percentage (I%) was calculated according to the equation: I% = 100–(ODBTU–01/ODcontrol) × 100. […]

NC(N)=S [thiourea, Thiourea, reference compound]
IC50 urease activity: 38.6 µg/mL (≈ 507 µM)
